# According to patent US10493026B2, “Process for making tablet using radiofrequency and lossy coated particles” (Johnson & Johnson Consumer Inc., priority 2017, dated 2019):
# Values joined by “and” are separate entries in the source; they are usually repeats but may differ in a detail not shown here. Identical values can stand only once.
# Experiment: Permittivity (Q, e′, e″) by impedance analyzer, capacitance method
# Type: physicochemical
# Settings: 27 MHz
# Source text: The property of permittivity is the measure of the resistance to forming an electric field. For purposes of comparing materials in air, it is often convenient to describe the permittivity of material in air where the permittivity is more specifically called “relative permittivity” or €r. This is a complex number represented by the following equation: €r=e′−je″ where e′ (the real portion of the complex number) is the dielectric constant (energy storage) and e″ (the imaginary portion of the complex number) is the dielectric loss or dissipation factor (energy dissipated as heat). The ratio of dielectric loss (e″) over the dielectric constant (e′) is called the loss tangent (tan δ) or power factor. […] The Q value is affected by physical and chemical properties such as density (porosity/particle size), moisture (conductivity), temperature, and molecular polarizability. The measurements obtained by this method can eliminate the need to measure and evaluate these properties independently.
# Permittivity values (Q, e′, e″) were measured using an Agilent Impedance Analyzer at 27Mhz using a capacitance method wherein a fixture with a bottom fixed plate and top adjustable plate with a torque limiter which lightly compresses a cylindrical sample container to remove any air. During testing, the container is over filled with material and then carefully leveled off to avoid void spaces. A lid is placed on top to temporarily seal material within the container. Once a measurement is made, custom software calculates the difference between the sample and the configuration empty.
Loss Tangent (Table 1A),e′ (Table 1A),e″ (Table 1A),Loss Tangent (Table 1B),e′ (Table 1B),e″ (Table 1B),SMILES
0.0035,1.703,0.006,0.0022,1.6214,0.0035,"OC[C@@H](O)[C@@H](O[C@H]1O[C@H](CO)[C@@H](O)[C@H](O)[C@H]1O)[C@H](O)[C@@H](O)CO [Maltitol, NF (SweetPearl P300DC), Maltitol]"
0.0028,1.410,0.004,–,–,–,"OC[C@@H](O)[C@@H](O)[C@H](O)[C@H](O)CO [Mannitol NF (Pearlitol 200SD), Mannitol]"
0.0358 and 0.0462 and 0.0361,1.960 and 2.097 and 1.803,0.0701 and 0.0969 and 0.0650,–,–,–,"OC[C@@H](O)[C@@H](O)[C@H](O)[C@@H](O)CO [Sorbitol Powder, NF, Sorbitol]"
